The target in assay [1] is His-tagged KRAS G12D protein (Homo sapiens, UniProt P01116, G12D). The experiment in a line: KRAS G12D TR-FRET assay (binding). To be noted: biotinylated KRPep-2d substrate, GDP in assay buffer. (In TR-FRET formats the signal depends on donor and acceptor labels being close together.)
Experimental: The plate was incubated for 30 minutes at room temperature. Biotinylated KRPep-2d substrate (Amgen) was diluted to 20 nM in Assay Buffer and 2 L was added to all wells and incubated for 1 hour at room temperature. Detection Reagent (0.4 nM LANCE Eu-W1024 Anti-6xHis (Perkin Elmer AD0401), 5 nM streptavidin-d^2 (Cisbio 610SADLA)) was prepared in Assay Buffer, then 4 μL was added to the plate and incubated for 1 hour at room temperature.
Assay [2] relates to Phosphorylation of ERK1/2 in AsPC-1 cells. As to the kind of experiment: Phospho-ERK1/2 MSD assay. It is filed as cell-based. Here is the method: Sixteen hours prior to compound treatment, AsPC-1 cells were seeded in 96-well cell culture plates at a density of 25,000 cells/well and incubated at 37° C., 5% CO2. A compound dose-response titration was diluted in growth media, added to appropriate wells of a cell culture plate, and then incubated at 37° C., 5% CO2 for 2 hours.

[3] abbreviates: Homo sapiens, ASPC1, read-out: 2 h p-ERK (AsPC-1 cells), IC50 (μM), 2 hours compound treatment.

The text below walks through data of patent publication US20250122222A1, “HETEROCYCLIC COMPOUNDS AND METHODS OF USE” (AMGEN INC., priority 2021, published 2025).

The term IC50 denotes the concentration needed to halve the response being measured.

Like-named read-outs stand apart in the source and are kept apart here.

Chain of His-tagged KRAS G12D protein (P01116 1-188 isoform P01116-2 G12D): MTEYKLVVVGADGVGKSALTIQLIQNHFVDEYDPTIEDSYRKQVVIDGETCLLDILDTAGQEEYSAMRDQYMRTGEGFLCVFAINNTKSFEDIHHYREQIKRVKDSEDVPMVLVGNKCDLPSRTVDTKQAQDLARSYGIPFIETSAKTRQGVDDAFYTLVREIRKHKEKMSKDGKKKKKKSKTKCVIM

For the compound `CCc1c(F)ccc2cc(O)cc(-c3ncc4c(N5CCS(=N)(=O)CC5)nc(OC[C@@]56CCCN5C[C@H](F)C6)nc4c3F)c12` [Example 35, 4-(7-(8-Ethyl-7-fluoro-3-hydroxynaphthalen-1-yl)-8-fluoro-2-(((2R,7aS)-2-fluorotetrahydro-1H-pyrrolizin-7a(5H)-yl)methoxy)pyrido[4,3-d]pyrimidin-4-yl)-1-imino-1 λ^6-thiomorpholine 1-oxide], the IC50 in assay [1] was 0.057 µM; in assay [2] (setting [3]) it was over 10 µM.
The corresponding values for `CCc1c(F)ccc2cc(O)cc(-c3ncc4c(N5CCSCC5)nc(OC[C@@]56CCCN5C[C@H](F)C6)nc4c3F)c12` [Example 4, 5-Ethyl-6-fluoro-4-(8-fluoro-2-(((2R,7aS)-2-fluorotetrahydro-1H-pyrrolizin-7a(5H)-yl)methoxy)-4-thiomorpholino-pyrido[4,3-d]pyrimidin-7-yl)naphthalen-2-ol] are 0.004 µM and 0.486 µM.
For the compound `CCc1cccc2cc(O)cc(-c3ncc4c(N5CCCOCC5)nc(OCC5(CN6CCOCC6)CC5)nc4c3F)c12` [Example 20, 5-Ethyl-4-(8-fluoro-2-((1-(morpholinomethyl)cyclopropyl)methoxy)-4-(1,4-oxazepan-4-yl)pyrido[4,3-d]pyrimidin-7-yl)naphthalen-2-ol], the IC50 in assay [1] was found to be 0.005 µM; in assay [2] (setting [3]) it was 0.336 µM.
The corresponding values for `CN1C[C@H](F)C[C@H]1COc1nc(N2CCCOCC2)c2cnc(-c3cc(O)cc4ccccc34)c(F)c2n1` [Example 16, 4-(8-Fluoro-2-(((2S,4R)-4-fluoro-1-methylpyrrolidin-2-yl)methoxy)-4-(1,4-oxazepan-4-yl)pyrido[4,3-d]pyrimidin-7-yl)naphthalen-2-ol] are 0.073 µM and 4.83 µM.
As to `CCc1c(F)ccc2cc(O)cc(-c3ncc4c(N5CCCOCC5)nc(OCC5(CN6CCOCC6)CC5)nc4c3F)c12` [Example 17, 5-Ethyl-6-fluoro-4-(8-fluoro-2-((1-(morpholinomethyl)cyclopropyl)methoxy)-4-(1,4-oxazepan-4-yl)pyrido[4,3-d]pyrimidin-7-yl)naphthalen-2-ol], the IC50 in assay [1] was found to be 0.003 µM; in assay [2] (setting [3]), 0.189 µM.
In the same order, the values of `Oc1cc(-c2ncc3c(N4CCCOCC4)nc(OC[C@@]45CCCN4C[C@H](F)C5)nc3c2F)c2c(F)c(F)ccc2c1` [Example 3, 5,6-Difluoro-4-(8-fluoro-2-(((2R,7aS)-2-fluorotetrahydro-1H-pyrrolizin-7a(5H)-yl)methoxy)-4-(1,4-oxazepan-4-yl)pyrido[4,3-d]pyrimidin-7-yl)naphthalen-2-ol] are 0.002 µM and 0.047 µM.
Take `CCc1c(F)ccc2cc(O)cc(-c3ncc4c(N5CCOC[C@H](CO)C5)nc(OC[C@@]56CCCN5C[C@H](F)C6)nc4c3F)c12` [Example 49, 5-Ethyl-6-fluoro-4-(8-fluoro-2-(((2R, 7aS)-2-fluorotetra-hydro-1H-pyrrol-izin-7a(5H)-yl)-methoxy)-4-((S)-6-(hydroxymethyl)-1,4-oxazepan-4-yl)-pyrido[4,3-d]pyr-imidin-7-yl)naph-thalen-2-ol]: the IC50 in assay [1] came out at 0.013 µM; in assay [2] (read-out: 2 h p-ERK (AsPC-1 cells), IC50, 2 hours compound treatment) it was 0.889 µM.
For `CCc1c(F)ccc2cc(O)cc(-c3ncc4c(N5CCCS(=O)(=O)CC5)nc(OC[C@@]56CCCN5C[C@H](F)C6)nc4c3F)c12` [Example 37, 4-(7-(8-Ethyl-7-fluoro-3-hydroxynaphthalen-1-yl)-8-fluoro-2-(((2R,7aS)-2-fluorotetrahydro-1H-pyrrolizin-7a(5H)-yl)methoxy)pyrido[4,3-d]pyrimidin-4-yl)-1,4-thiazepane 1,1-dioxide], the results for the IC50 in assay [1] and in assay [2] (setting [3]) were 0.011 µM and 2.66 µM, respectively.
The corresponding values for `CCc1c(F)ccc2cc(O)cc(-c3ncc4c(N5CC[S+]([O-])CC5)nc(OC[C@@]56CCCN5C[C@H](F)C6)nc4c3F)c12` [Example 34, 4-(7-(8-Ethyl-7-fluoro-3-hydroxynaphthalen-1-yl)-8-fluoro-2-(((2R,7aS)-2-fluorotetrahydro-1H-pyrrolizin-7a(5H)-yl)methoxy)pyrido[4,3-d]pyrimidin-4-yl)thiomorpholine 1-oxide] are 0.001 µM and 0.393 µM.
As for `CN1C[C@H](F)C[C@H]1COc1nc(N2CCCOCC2)c2cnc(-c3cc(O)cc4ccc(F)c(F)c34)c(F)c2n1` [Example 8, 5,6-Difluoro-4-(8-fluoro-2-(((2S,4R)-4-fluoro-1-methylpyrrolidin-2-yl)methoxy)-4-(1,4-oxazepan-4-yl)pyrido[4,3-d]pyrimidin-7-yl)naphthalen-2-ol], the half-maximal inhibitory concentration (IC50) was 0.005 µM in assay [1] and 0.103 µM in assay [2] (setting [3]).
